Key:
[1] = tested on: Bax, Bcl-2 and Casp-3 genes expression in HCT-116 cells; experiment: qRT-PCR of Bax, Bcl-2 and Casp-3 gene expression, HCT-116; assay type: cell-based, human; details: 30 µg/mL, 48 h
Procedure: To investigate molecular events downstream of ROS generation, we evaluated mRNA expression levels of key regulators of mitochondrial apoptosis—Bax and Bcl-2—using qRT-PCR. […] As a result, the Bax/Bcl-2 ratios were calculated to be 12.63 in LoVo cells and 8.71 in HCT-116 cells, reflecting a pronounced pro-apoptotic shift. This alteration in the Bax/Bcl-2 ratio strongly supports the activation of the mitochondrial apoptotic pathway.
To confirm activation of the execution phase of apoptosis, Casp-3 mRNA levels were evaluated by qRT-PCR.
The expression levels of these genes were determined using a quantitative real-time PCR technique. […]
S3.2.9. Quantification of the Expression Levels of Bax, Bcl-2 and Caspase-3 Genes
Human colon cancer cell lines (HCT-116 and LoVo) were cultured for 24 h in a 25 mL flask at
a density of 1 * 10^6 cells/flask as described in section S3.2.4. Cells were treated with 30 µg/mL
of compound 3d in 2 mL of fresh medium containing 1% FBS, or with 0.25 % DMSO as a
negative control, for 48 h. Afterwards, cells were washed with ice-cold phosphate-buffered
saline (PBS) and adherent cells were detached using trypsin solution.
Table S7 lists primers amplifying 100-200 bp of Bax, Bcl-2 and Caspase-3 genes. These primers
were designed using primer blast software (https://www.ncbi.nlm.nih.gov/tools/primer-
Table S7. Primer sequences for Bax, Bcl-2, Caspase-3, and GAPDH (control)
Gene Primer sequence (5’ to 3’)
Bcl-2 F 5’-[…] -3’,
Caspase 3 F 5’- […]-3’,
GAPDH F 5’- […]-3’
• Reverse-Transcription PCR (RT-PCR)
The total RNA was extracted from untreated and treated cells using the RNeasy Mini Kit
(Qiagen, DE). A Nanodrop 8000 spectrophotometer (Thermo Fisher Scientific, USA) was
used to check the RNA purity and quality. The Hyperscript Kit (GeneAll, KR) and random
hexamers (GeneAll, KR) were used as described in the manufacturer’s protocol to reverse-
transcript 1µg of RNA from each sample into cDNA.
• Quantitative real-time PCR
The mRNA expression of Bax, Bcl-2, and Caspase-3 were measured using QuantStudio
7Flex Detection System (Applied Biosystems, USA). The iScript One-Step RT-PCR Kit with
SYBR Green (Cat no: 170-8892; Bio-Rad, CA, USA) was used to carry out the reactions for
the synthesis of cDNA. Each cDNA sample (5 µl) was added in a 20 µL PCR mixture

PDK-1 = PDK-1 (Homo sapiens, UniProt Q15118); experiment: In vitro PDK-1 inhibition assay (Kinase-Glo luminescent kinase kit); assay type: biochemical
[2] = tested on: LoVo colon carcinoma cells; experiment: Cell viability, LDH release assay, LoVo; details: Homo sapiens, LoVo, 48 h
[3] = relative to untreated controls, normalized to GAPDH

Sequence of PDK-1 (Q15118 29-436): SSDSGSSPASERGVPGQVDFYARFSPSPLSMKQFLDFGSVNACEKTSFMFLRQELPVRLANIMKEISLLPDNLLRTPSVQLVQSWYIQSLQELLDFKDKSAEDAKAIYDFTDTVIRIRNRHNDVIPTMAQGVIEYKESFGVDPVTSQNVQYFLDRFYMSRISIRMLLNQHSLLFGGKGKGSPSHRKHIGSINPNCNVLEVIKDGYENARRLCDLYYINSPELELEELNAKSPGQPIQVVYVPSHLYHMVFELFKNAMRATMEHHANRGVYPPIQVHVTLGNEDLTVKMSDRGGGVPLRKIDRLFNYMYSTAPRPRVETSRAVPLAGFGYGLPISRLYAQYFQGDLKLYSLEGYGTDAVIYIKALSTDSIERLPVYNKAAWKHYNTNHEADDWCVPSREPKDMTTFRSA

COc1cc(/C=N/c2ncnc3sc4c(c23)CCCC4)cc(OC)c1OC [Compound 3d, (E)-N-(5,6,7,8-Tetrahydrobenzo[4,5]thieno[2,3-d]pyrimidin-4-yl)-1-(3,4,5-trimethoxyphenyl)methanimine]
Bax/Bcl-2 ratio, HCT-116 cells [1]: 8.71 | Bax mRNA expression, fold of control (HCT-116) [1, 3]: 3.57 ± 0.18 fold | Bcl-2 mRNA expression, fold of control (HCT-116) [1, 3]: 0.41 ± 0.04 fold | Casp-3 mRNA expression, fold of control (HCT-116) [1, 3]: 4.50 ± 0.40 fold | inhibition at 100 µg/mL (PDK-1; 100 µg/mL, three replicates, read-out: Mean Inhibition Percent ± SD, PDK-1): 41.8 ± 3.39% | IC50 (PDK-1; three independent experiments, read-out: Mean IC50 µM ± SD, PDK-1): 305 ± 11.1 µM | viability at 100 µg/mL ([2]; read-out: Mean % of viable cells ± SD, LoVo, 100 µg/mL, 48 h, LDH release assay): < 29% | IC50 ([2]; read-out: Mean IC50 Values in µM ± SD, LoVo cells): 157 µM

Reference: paper PMC12196476, “New Nitrogen-, Oxygen-, and Sulfur-Containing Heterocyclic Compounds as Anti-Colon Cancer Agents: Synthesis, Multitargeted Evaluations, Molecular Docking Simulations and ADMET Predictions” (Pharmaceuticals, 2025)
